According to patent publication US20100216751A1 (priority 2007, published 2010):

Test: Pharmacokinetic evaluation of liquid bevirimat dosage forms, oral gavage, male Cynomolgus monkeys
Details: male, cynomolgus monkey, in vivo, po; for AUC / Cmax / half-life / Tmax: 200 mg
Procedure: Six male Cynomolgus monkeys having an initial body weight of about 3.5 to about 4.5 kg are allowed 7 days to acclimate to their individual housing units. Monkeys are supplied with water and a commercial diet ad libitum prior to the study initiation. Food is withheld from the monkeys for a minimum of twelve hours before the study and during the study until four hours postdose when food is returned. Water is supplied ad libitum.
Test formulations are administered to the monkeys at time 0 on appropriate days. Test formulations will be dosed orally via oral gavage or intravenously.
Samples are drawn at the frequencies indicated below. Each blood sample (0.5 mL) is collected from the monkey's saphenous vein via a butterfly catheter and placed into a chilled polypropylene tube containing sodium heparin as the anticoagulant. Blood samples are centrifuged at a temperature of 4° C. at a speed of 3,000 rpm for 15 minutes. All samples are maintained chilled throughout processing. Plasma is collected after centrifugation, pipetted into a 2-mL polypropylene microtube, and frozen on dry-ice pending analytical evaluation.

[1] = 50 mg/monkey, Plasma Concentration, PG/glycerin/Vitamin ETPGS/Tween80/Plasdone C15 formulation, AVG
[2] = 50 mg/monkey, Plasma Concentration, PG/glycerin/Vitamin ETPGS/Tween80/Plasdone C15 formulation, individual monkey
[3] = 50 mg/monkey, Plasma Concentration, PG/glycerin/Vitamin ETPGS/ethanol formulation, AVG
[4] = 50 mg/monkey, Plasma Concentration, PG/glycerin/Vitamin ETPGS/ethanol formulation, individual monkey
[5] = 200 mg/monkey, Plasma Concentration, PG/glycerin/Vitamin ETPGS/ethanol formulation, AVG
[6] = 200 mg/monkey, Plasma Concentration, PG/glycerin/Vitamin ETPGS/ethanol formulation, individual monkey

C=C(C)[C@@H]1CC[C@]2(C(=O)O)CC[C@]3(C)[C@H](CC[C@@H]4[C@@]5(C)CC[C@H](OC(=O)CC(C)(C)C(=O)O)C(C)(C)[C@@H]5CC[C@]43C)[C@@H]12 [Bevirimat, 3-O-(3′,3′-dimethylsuccinyl)betulinic acid]
concentration at 1 h (50 mg/monkey, Plasma Concentration, PG/glycerin/Vitamin ETPGS/Tween80/Plasdone C15 formulation, 1.0 hr, AVG): 24800 ng/mL
concentration at 2 h [1]: 61600 ng/mL
concentration at 2 h [2]: 52700 ng/mL
concentration at 4 h [1]: 53600 ng/mL
concentration at 4 h [2]: 55100 ng/mL
concentration at 6 h [1]: 32300 ng/mL
concentration at 6 h [2]: 31500 ng/mL
concentration at 8 h (50 mg/monkey, Plasma Concentration, PG/glycerin/Vitamin ETPGS/Tween80/Plasdone C15 formulation, 8.0 hr, AVG): 21000 ng/mL
concentration at 8 h (50 mg/monkey, Plasma Concentration, PG/glycerin/Vitamin ETPGS/Tween80/Plasdone C15 formulation, 8.0 hr, individual monkey): 22300 ng/mL
concentration at 12 h (50 mg/monkey, Plasma Concentration, PG/glycerin/Vitamin ETPGS/Tween80/Plasdone C15 formulation, 12 hr, AVG): 8160 ng/mL
concentration at 12 h (50 mg/monkey, Plasma Concentration, PG/glycerin/Vitamin ETPGS/Tween80/Plasdone C15 formulation, 12 hr, individual monkey): 8580 ng/mL
concentration at 24 h (50 mg/monkey, Plasma Concentration, PG/glycerin/Vitamin ETPGS/Tween80/Plasdone C15 formulation, 24 hr, AVG): 1270 ng/mL
concentration at 24 h (50 mg/monkey, Plasma Concentration, PG/glycerin/Vitamin ETPGS/Tween80/Plasdone C15 formulation, 24 hr, individual monkey): 1320 ng/mL
concentration at 48 h (50 mg/monkey, Plasma Concentration, PG/glycerin/Vitamin ETPGS/Tween80/Plasdone C15 formulation, 48 hr, AVG): 336 ng/mL
concentration at 72 h (50 mg/monkey, Plasma Concentration, PG/glycerin/Vitamin ETPGS/Tween80/Plasdone C15 formulation, 72 hr, individual monkey): 112 ng/mL
concentration at 0.25 h (50 mg/monkey, Plasma Concentration, PG/glycerin/Vitamin ETPGS/ethanol formulation, 0.25 hr, individual monkey): 78.4 ng/mL
concentration at 0.5 h (50 mg/monkey, Plasma Concentration, PG/glycerin/Vitamin ETPGS/ethanol formulation, 0.50 hr, AVG): 246 ng/mL
concentration at 1 h (50 mg/monkey, Plasma Concentration, PG/glycerin/Vitamin ETPGS/ethanol formulation, 1.0 hr, AVG): 36900 ng/mL
concentration at 2 h [3]: 60100 ng/mL
concentration at 2 h [4]: 58900 ng/mL
concentration at 4 hr [3]: 42500 ng/mL
concentration at 4 h [4]: 34500 ng/mL
concentration at 6 hr [3]: 23000 ng/mL
concentration at 8 hr (50 mg/monkey, Plasma Concentration, PG/glycerin/Vitamin ETPGS/ethanol formulation, 8.0 hr, AVG): 14700 ng/mL
concentration at 12 hr (50 mg/monkey, Plasma Concentration, PG/glycerin/Vitamin ETPGS/ethanol formulation, 12 hr, AVG): 5310 ng/mL
concentration at 24 hr (50 mg/monkey, Plasma Concentration, PG/glycerin/Vitamin ETPGS/ethanol formulation, 24 hr, AVG): 1340 ng/mL
concentration at 48 hr (50 mg/monkey, Plasma Concentration, PG/glycerin/Vitamin ETPGS/ethanol formulation, 48 hr, AVG): 149 ng/mL
AUC (AUCall): 1300 µg·h/mL
AUC (AUCall, 200 mg/monkey, PG/glycerin/Vitamin ETPGS/ethanol formulation, individual monkey): 1200 µg·h/mL
Cmax (Cmax, 200 mg/monkey, PG/glycerin/Vitamin ETPGS/ethanol formulation, AVG): 217000 ng/mL
Cmax (Cmax, 200 mg/monkey, PG/glycerin/Vitamin ETPGS/ethanol formulation, individual monkey): 202000 ng/mL
AUC (pH 8): 1970 µg·h/mL
Cmax (pH 8): 225000 ng/mL
half-life (pH 8): 8.3 h
AUC (pH 8, AUCall): 1390 µg·h/mL
Tmax (pH 8, tmax): 2 h
half-life (t1/2, oral, 200 mg/monkey, PG/glycerin/Vitamin ETPGS/ethanol formulation, AVG): 10.8 h
half-life (t1/2, oral, 200 mg/monkey, PG/glycerin/Vitamin ETPGS/ethanol formulation, individual monkey): 11.4 h
Tmax (tmax): 2 h
concentration at 0.25 hr (200 mg/monkey, Plasma Concentration, PG/glycerin/Vitamin ETPGS/ethanol formulation, 0.25 hr, AVG): 565 ng/mL
concentration at 0.5 hr (200 mg/monkey, Plasma Concentration, PG/glycerin/Vitamin ETPGS/ethanol formulation, 0.50 hr, AVG): 6020 ng/mL
concentration at 1 hr (200 mg/monkey, Plasma Concentration, PG/glycerin/Vitamin ETPGS/ethanol formulation, 1.0 hr, AVG): 64800 ng/mL
concentration at 2 hr [5]: 217000 ng/mL
concentration at 2 hr [6]: 202000 ng/mL
concentration at 4 hr [5]: 152000 ng/mL
concentration at 4 hr [6]: 166000 ng/mL
concentration at 6 hr [5]: 77800 ng/mL
